Measurements taken from patent US12398107B2, “Fungicidal nitroanilino substituted pyrazoles” (FMC Corporation, priority 2018, dated 2025).

Legend:
Type in all cases: in vivo
Septoria tritici = experiment: Test A: wheat leaf blotch, preventive spray on wheat seedlings; settings: 100 = 100% disease control, 0 = no control relative to controls; for Test A disease control rating (wheat leaf blotch) / pest or weed control at 50 ppm: 50 ppm
Summary of the method: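 Compounds were suspended in acetone/water (50/50) with 250 ppm PEG400 and sprayed to run-off on wheat seedlings. The next day the seedlings were inoculated with Septoria tritici spores, held 48 h at 24 °C in saturated humidity, then 17 days at 20 °C. Disease control was rated 0–100 relative to controls.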

[1] = system: Puccinia recondita f. sp. tritici; experiment: Test B: wheat leaf rust, preventive spray on wheat seedlings; settings: 100 = 100% disease control, 0 = no control relative to controls; for Test B disease control rating (wheat leaf rust) / pest or weed control at 50 ppm: 50 ppm
Summary of the method: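 Compounds in acetone/water (50/50) with 250 ppm PEG400, sprayed to run-off on wheat seedlings at stated ppm; inoculated next day with P. recondita spores. Held 24 h saturated at 20° C., then 7 days in growth chamber at 20° C.; rating 0–100 = % disease control vs controls.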

[2] = system: Blumeria graminis f. sp. tritici; experiment: Test C: wheat powdery mildew, preventive spray on wheat seedlings; settings: rated after 8 days, 100 = 100% disease control, 0 = no control; for Test C disease control rating (wheat powdery mildew) / pest or weed control at 50 ppm: 50 ppm
Summary of the method: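 Compound dissolved in acetone (3% of final volume), then suspended in 50/50 acetone/water with 250 ppm PEG400 and sprayed to run-off on wheat seedlings. Inoculated next day with B. graminis f. sp. tritici spore dust, kept 8 days at 20° C; visual rating, 100 = full control, 0 = none, relative to controls.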

Phakopsora pachyrhizi = experiment: Test D: Asian soybean rust, preventive spray on soybean seedlings; settings: 100 = 100% disease control, 0 = no control; for Test D disease control rating (Asian soybean rust) / pest or weed control at 50 ppm: 50 ppm
Summary of the method: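 Soybean seedlings sprayed to run-off with compound suspension (ppm, in 50/50 acetone/water with 250 ppm PEG400), inoculated next day with P. pachyrhizi spores, held 24 h saturated at 22°C then 8 days at 22°C. Visual rating 0-100% disease control relative to controls.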

Botrytis cinerea = experiment: Test E: tomato Botrytis, preventive spray on tomato seedlings; settings: 100 = 100% disease control, 0 = no control; for Test E disease control rating (tomato Botrytis) / pest or weed control at 50 ppm: 50 ppm
Summary of the method: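 Tomato seedlings sprayed to run-off with compound (ppm) in acetone/water with 250 ppm PEG400, then inoculated next day with B. cinerea spores. Held 48 h at 20 °C in saturated atmosphere, then 3 days at 24 °C. Visual rating 0–100% disease control relative to untreated controls.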

Alternaria solani = experiment: Test F: tomato early blight, preventive spray on tomato seedlings; settings: 100 = 100% disease control, 0 = no control; for Test F disease control rating (tomato early blight) / pest or weed control at 50 ppm: 50 ppm
Summary of the method: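 Compounds in acetone/water (50/50) with 250 ppm PEG400, dosed in ppm, sprayed to run-off on tomato seedlings; next day inoculated with A. solani spores. Held 48 h saturated at 27° C, then 3 days at 20° C; visual rating 0–100% disease control relative to controls.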

[3] = Zymoseptoria tritici, read-out: Test A disease control rating (wheat leaf blotch)
[4] = read-out: Test B disease control rating (wheat leaf rust)
[5] = Blumeria graminis, 192 h, read-out: Test C disease control rating (wheat powdery mildew)
[6] = Phakopsora pachyrhizi, read-out: Test D disease control rating (Asian soybean rust)
[7] = Botrytis cinerea, read-out: Test E disease control rating (tomato Botrytis)
[8] = Alternaria solani, read-out: Test F disease control rating (tomato early blight)

| SMILES | Test A disease control rating (wheat leaf blotch) (Septoria tritici) | Test B disease control rating (wheat leaf rust) [1] | Test C disease control rating (wheat powdery mildew) [2] | Test D disease control rating (Asian soybean rust) (Phakopsora pachyrhizi) | Test E disease control rating (tomato Botrytis) (Botrytis cinerea) | Test F disease control rating (tomato early blight) (Alternaria solani) | pest or weed control at 50 ppm (Septoria tritici; [3]) | pest or weed control at 50 ppm [1, 4] | pest or weed control at 50 ppm [2, 5] | pest or weed control at 50 ppm (Phakopsora pachyrhizi; [6]) | pest or weed control at 50 ppm (Botrytis cinerea; [7]) | pest or weed control at 50 ppm (Alternaria solani; [8]) | pest or weed control at 10 ppm (Septoria tritici; Zymoseptoria tritici, 10 ppm, read-out: Test A disease control rating (wheat leaf blotch)) | pest or weed control at 10 ppm ([1]; 10 ppm, read-out: Test B disease control rating (wheat leaf rust)) | pest or weed control at 10 ppm ([2]; Blumeria graminis, 192 h, 10 ppm, read-out: Test C disease control rating (wheat powdery mildew)) | pest or weed control at 10 ppm (Phakopsora pachyrhizi; Phakopsora pachyrhizi, 10 ppm, read-out: Test D disease control rating (Asian soybean rust)) | pest or weed control at 10 ppm (Botrytis cinerea; Botrytis cinerea, 10 ppm, read-out: Test E disease control rating (tomato Botrytis)) | pest or weed control at 10 ppm (Alternaria solani; Alternaria solani, 10 ppm, read-out: Test F disease control rating (tomato early blight)) |
| --- | --- | --- | --- | --- | --- | --- | --- | --- | --- | --- | --- | --- | --- | --- | --- | --- | --- | --- |
| Cc1nn(C)c(Nc2c(F)cc(F)cc2[N+](=O)[O-])c1-c1ccc(C#N)cc1Cl [Compound 120] | 100% | 100% | 89% | 44% | 100% | 99% |  |  |  |  |  |  |  |  |  |  |  |  |
| Cc1nn(C)c(Nc2c(F)cc(F)cc2[N+](=O)[O-])c1-c1ccc(Cl)cc1Cl [Compound 9] | 100% | 100% | 97% | 0% | 97% | 99% |  |  |  |  |  |  |  |  |  |  |  |  |
| Cc1nn(C)c(Nc2c(F)cc(Cl)cc2[N+](=O)[O-])c1-c1ccc(F)cc1Cl [Compound 121, N-(4-chloro-2-fluoro-6-nitrophenyl)-4-(2-chloro-4-fluorophenyl)-1,3-dimethyl-1H-pyrazol-5-amine] |  |  |  |  |  |  | 100% | 100% | 100% | 99% | 100% | 100% |  |  |  |  |  |  |
| COc1cc(F)c(Nc2c(-c3c(F)cccc3Cl)c(C)nn2C)c([N+](=O)[O-])c1 [Compound 23, 4-(2-chloro-6-fluorophenyl)-N-(2-fluoro-4-methoxy-6-nitrophenyl)-1,3-dimethyl-1H-pyrazol-5-amine] |  |  |  |  |  |  | 100% | 100% | 100% | 99% | 97% | 99% |  |  |  |  |  |  |
| Cc1nn(C)c(Nc2c(Cl)cccc2[N+](=O)[O-])c1-c1c(F)cc(F)cc1F [Compound 158] | 99% | 100% | 99% | 87% | 99% | 83% |  |  |  |  |  |  |  |  |  |  |  |  |
| Cc1ccc(Nc2c(-c3ccc(C#N)cc3Cl)c(C)nn2C)c([N+](=O)[O-])c1 [Compound 14] | 100% | 97% | 83% | 48% | 96% | 83% |  |  |  |  |  |  |  |  |  |  |  |  |
| Cc1cccc([N+](=O)[O-])c1Nc1c(-c2ccc(F)cc2Br)c(C)nn1C [Compound 42] | 100% | 100% | 96% | 0% | 91% | 0% |  |  |  |  |  |  |  |  |  |  |  |  |
| Cc1nn(C)c(Nc2c(F)cccc2[N+](=O)[O-])c1-c1ccc(F)cc1F [Compound 118, 4-(2,4-difluorophenyl)-N-(2-fluoro-6-nitrophenyl)-1,3-dimethyl-1H-pyrazol-5-amine] |  |  |  |  |  |  | 100% | 100% | 98% | 0% | 100% | 99% | 100% | 80% | 27% | 0% | 99% | 60% |
| Cc1cccc([N+](=O)[O-])c1Nc1c(-c2c(F)cc(F)cc2Cl)c(C)nn1C [Compound 153] | 99% | 100% | 99% | 73% | 99% | 72% |  |  |  |  |  |  |  |  |  |  |  |  |
| CCc1nn(C)c(Nc2c(F)cc(Br)cc2[N+](=O)[O-])c1-c1ccc(F)cc1F [Compound 171] | 100% | 91% | 99% | 0% | 97% | 88% |  |  |  |  |  |  |  |  |  |  |  |  |
| Cc1nn(C)c(Nc2ccc(Cl)cc2[N+](=O)[O-])c1-c1ccc(F)cc1Cl [Compound 92] | 100% | 96% | 89% | 0% | 100% | 79% |  |  |  |  |  |  |  |  |  |  |  |  |
| Cc1nn(C)c(Nc2ccccc2[N+](=O)[O-])c1-c1c(F)cccc1Cl [Compound 136] | 100% | 80% | 88% | 0% | 99% | 0% |  |  |  |  |  |  |  |  |  |  |  |  |
| Cc1cccc([N+](=O)[O-])c1Nc1c(-c2c(F)cc(F)cc2Br)c(C)nn1C [Compound 169] | 100% | 100% | 100% | 0% | 98% | 0% |  |  |  |  |  |  |  |  |  |  |  |  |
| Cc1nn(C)c(Nc2c(Cl)cc(F)cc2[N+](=O)[O-])c1-c1ccc(Cl)cc1Cl [Compound 10] | 100% | 99% | 48% | 0% | 68% | 9% |  |  |  |  |  |  |  |  |  |  |  |  |
| COc1ccc(Nc2c(-c3ccc(Cl)cc3Cl)c(C)nn2C)c([N+](=O)[O-])c1 [Compound 142] | 100% | 91% | 39% | 25% | 99% | 80% |  |  |  |  |  |  |  |  |  |  |  |  |
| Cc1nn(C)c(Nc2c(Cl)cc(F)cc2[N+](=O)[O-])c1-c1ccc(Cl)cc1F [Compound 176] | 100% | 97% | 0% | 0% | 9% | 0% |  |  |  |  |  |  |  |  |  |  |  |  |
| Cc1nn(C)c(Nc2c(F)cc(Cl)cc2[N+](=O)[O-])c1-c1ccc(F)cc1Br [Compound 131] | 100% | 100% | 99% | 80% | 99% | 100% |  |  |  |  |  |  |  |  |  |  |  |  |
| Cc1nn(C)c(Nc2c(F)cccc2[N+](=O)[O-])c1-c1c(F)cc(F)cc1F [Compound 62] | 100% | 100% | 100% | 100% | 99% | 99% |  |  |  |  |  |  |  |  |  |  |  |  |
